From ChEMBL document CHEMBL1126498, “Heterocyclic inhibitors of human leukocyte elastase: 3-Hydroxypyridazopyrimidine, 3-hydroxypyridopyrimidine and 3-hydroxyquinazoline-2,4-1H,3H0dione derivatives” (Bioorg Med Chem Lett, 1993)
Calls of active or inactive are those of the source. No cut-off for these calls is given here.

These compounds were tested against T1, Neutrophil elastase (Homo sapiens) (UniProt P08246) (assay: The bimolecular rate constant Kobs/[I] to inhibit human leukocyte elastase (HLE) was determined).
T1 sequence (whole entry): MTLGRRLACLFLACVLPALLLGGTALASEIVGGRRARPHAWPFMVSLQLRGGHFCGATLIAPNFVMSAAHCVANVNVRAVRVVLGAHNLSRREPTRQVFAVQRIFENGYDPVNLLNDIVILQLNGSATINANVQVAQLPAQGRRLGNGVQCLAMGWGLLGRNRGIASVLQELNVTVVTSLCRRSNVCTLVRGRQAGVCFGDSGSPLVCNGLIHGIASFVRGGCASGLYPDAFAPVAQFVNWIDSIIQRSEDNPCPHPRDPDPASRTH
`CCCCS(=O)(=O)On1c(=O)[nH]c2nccnc2c1=O` showed a K obs / 1 of 20 M⁻¹ s⁻¹. For `CCCCS(=O)(=O)On1c(=O)[nH]c2cccnc2c1=O`, the K obs / 1 was 64 M⁻¹ s⁻¹. `CCCCS(=O)(=O)On1c(=O)[nH]c2ccncc2c1=O` was tested, and the K obs / 1 was 58 M⁻¹ s⁻¹. With `CCCCCS(=O)(=O)On1c(=O)[nH]c2ccccc2c1=O` the K obs / 1 was 40 M⁻¹ s⁻¹. Work on `CCCCS(=O)(=O)On1c(=O)[nH]c2ccccc2c1=O` yielded a K obs / 1 of 180 M⁻¹ s⁻¹. `CC(C)CS(=O)(=O)On1c(=O)[nH]c2ccccc2c1=O` showed a K obs / 1 of 170 M⁻¹ s⁻¹. For `CCCCOP(=O)(OCCCC)On1c(=O)[nH]c2ccccc2c1=O`, the K obs / 1 was 3870 M⁻¹ s⁻¹. With `CCCOP(=O)(OCCC)On1c(=O)[nH]c2ccccc2c1=O` the K obs / 1 was 3160 M⁻¹ s⁻¹.

Each compound was assayed against T1, Neutrophil elastase (Homo sapiens) (assay: The bimolecular rate constant Kobs/[I] to inhibit human leukocyte elastase (HLE) was determined; IA denotes inactive).
With `CS(=O)(=O)On1c(=O)[nH]c2nccnc2c1=O` the “K obs / 1” value was “inactive”. `CS(=O)(=O)On1c(=O)[nH]c2ccccc2c1=O` was tested, and the “K obs / 1” value was “inactive”. In the case of `O=c1[nH]c2nccnc2c(=O)n1OS(=O)(=O)c1ccccc1`, the “K obs / 1” value is reported as “inactive”. `O=c1[nH]c2ccccc2c(=O)n1OS(=O)(=O)c1ccccc1` was tested, and the “K obs / 1” value was “inactive”.
